Measured values: the NIST ThermoML archive (doi:10.1016/j.jct.2015.09.002)
± gives the expanded uncertainty stated by the source.

Experiment: xn = mol fraction of the nth substance listed
Details: 93.2 kPa, Liquid, Vibrating tube method

Compound `CCCCNCCCC` [dibutylamine] + CC#N has a mass density (293.15 K, x2 = 0) of 759.7 ± 2 kg/m3, a mass density (293.15 K, x2 = 0.0695) of 760.49 ± 2 kg/m3 and a mass density (293.15 K, x2 = 0.081) of 760.6 ± 2 kg/m3. For the same compound, the mass density (293.15 K, x2 = 0.1023) was 760.85 ± 2 kg/m3, the mass density (293.15 K, x2 = 0.1527) was 761.32 ± 2 kg/m3 and the mass density (293.15 K, x2 = 0.2029) was 761.82 ± 2 kg/m3. It also gave a mass density (293.15 K, x2 = 0.2499) of 762.19 ± 2 kg/m3, a mass density (293.15 K, x2 = 0.2996) of 762.67 ± 2 kg/m3 and a mass density (293.15 K, x2 = 0.3542) of 763.23 ± 2 kg/m3. The mass density (293.15 K, x2 = 0.3978) was 763.73 ± 2 kg/m3, the mass density (293.15 K, x2 = 0.47) was 764.62 ± 2 kg/m3 and the mass density (293.15 K, x2 = 0.4987) was 764.98 ± 2 kg/m3. It also gave a mass density (293.15 K, x2 = 0.5498) of 765.74 ± 2 kg/m3, a mass density (293.15 K, x2 = 0.6001) of 766.63 ± 2 kg/m3 and a mass density (293.15 K, x2 = 0.6499) of 767.62 ± 2 kg/m3. For the same compound, the mass density (293.15 K, x2 = 0.6991) was 768.71 ± 2 kg/m3, the mass density (293.15 K, x2 = 0.7496) was 770.07 ± 2 kg/m3 and the mass density (293.15 K, x2 = 0.8) was 771.64 ± 2 kg/m3. It also gave a mass density (293.15 K, x2 = 0.8494) of 773.46 ± 2 kg/m3, a mass density (293.15 K, x2 = 0.8994) of 775.72 ± 2 kg/m3 and a mass density (293.15 K, x2 = 0.9293) of 777.27 ± 2 kg/m3. It also gave a mass density (293.15 K, x2 = 0.9394) of 777.86 ± 2 kg/m3, a mass density (293.15 K, x2 = 0.9498) of 778.5 ± 2 kg/m3 and a mass density (293.15 K, x2 = 0.9596) of 779.13 ± 2 kg/m3. It also gave a mass density (293.15 K, x2 = 0.9699) of 779.82 ± 2 kg/m3, a mass density (293.15 K, x2 = 0.9799) of 780.54 ± 2 kg/m3 and a mass density (293.15 K, x2 = 0.9897) of 781.26 ± 2 kg/m3. For the same compound, the mass density (298.15 K, x2 = 0) was 755.61 ± 2 kg/m3, the mass density (298.15 K, x2 = 0.0695) was 756.33 ± 2 kg/m3 and the mass density (298.15 K, x2 = 0.081) was 756.44 ± 2 kg/m3. The mass density (298.15 K, x2 = 0.1023) was 756.68 ± 2 kg/m3, the mass density (298.15 K, x2 = 0.1527) was 757.12 ± 2 kg/m3 and the mass density (298.15 K, x2 = 0.2029) was 757.58 ± 2 kg/m3. It also gave a mass density (298.15 K, x2 = 0.2499) of 757.95 ± 2 kg/m3, a mass density (298.15 K, x2 = 0.2996) of 758.39 ± 2 kg/m3 and a mass density (298.15 K, x2 = 0.3542) of 758.88 ± 2 kg/m3. The mass density (298.15 K, x2 = 0.3978) was 759.35 ± 2 kg/m3, the mass density (298.15 K, x2 = 0.47) was 760.17 ± 2 kg/m3 and the mass density (298.15 K, x2 = 0.4987) was 760.52 ± 2 kg/m3. It also gave a mass density (298.15 K, x2 = 0.5498) of 761.23 ± 2 kg/m3, a mass density (298.15 K, x2 = 0.6001) of 762.05 ± 2 kg/m3 and a mass density (298.15 K, x2 = 0.6499) of 762.97 ± 2 kg/m3. It also gave a mass density (298.15 K, x2 = 0.6991) of 763.99 ± 2 kg/m3, a mass density (298.15 K, x2 = 0.7496) of 765.28 ± 2 kg/m3 and a mass density (298.15 K, x2 = 0.8) of 766.75 ± 2 kg/m3. The mass density (298.15 K, x2 = 0.8494) was 768.5 ± 2 kg/m3, the mass density (298.15 K, x2 = 0.8994) was 770.63 ± 2 kg/m3 and the mass density (298.15 K, x2 = 0.9293) was 772.08 ± 2 kg/m3. For the same compound, the mass density (298.15 K, x2 = 0.9394) was 772.65 ± 2 kg/m3, the mass density (298.15 K, x2 = 0.9498) was 773.27 ± 2 kg/m3 and the mass density (298.15 K, x2 = 0.9596) was 773.86 ± 2 kg/m3. For the same compound, the mass density (298.15 K, x2 = 0.9699) was 774.53 ± 2 kg/m3, the mass density (298.15 K, x2 = 0.9799) was 775.22 ± 2 kg/m3 and the mass density (298.15 K, x2 = 0.9897) was 775.91 ± 2 kg/m3. The mass density (303.15 K, x2 = 0) was 751.5 ± 2 kg/m3, the mass density (303.15 K, x2 = 0.0695) was 752.17 ± 2 kg/m3 and the mass density (303.15 K, x2 = 0.081) was 752.27 ± 2 kg/m3. It also gave a mass density (303.15 K, x2 = 0.1023) of 752.5 ± 2 kg/m3, a mass density (303.15 K, x2 = 0.1527) of 752.9 ± 2 kg/m3 and a mass density (303.15 K, x2 = 0.2029) of 753.32 ± 2 kg/m3. It also gave a mass density (303.15 K, x2 = 0.2499) of 753.65 ± 2 kg/m3, a mass density (303.15 K, x2 = 0.2996) of 754.06 ± 2 kg/m3 and a mass density (303.15 K, x2 = 0.3542) of 754.51 ± 2 kg/m3. For the same compound, the mass density (303.15 K, x2 = 0.3978) was 754.95 ± 2 kg/m3, the mass density (303.15 K, x2 = 0.47) was 755.7 ± 2 kg/m3 and the mass density (303.15 K, x2 = 0.4987) was 756.02 ± 2 kg/m3. The mass density (303.15 K, x2 = 0.5498) was 756.67 ± 2 kg/m3, the mass density (303.15 K, x2 = 0.6001) was 757.43 ± 2 kg/m3 and the mass density (303.15 K, x2 = 0.6499) was 758.29 ± 2 kg/m3. For the same compound, the mass density (303.15 K, x2 = 0.6991) was 759.24 ± 2 kg/m3, the mass density (303.15 K, x2 = 0.7496) was 760.44 ± 2 kg/m3 and the mass density (303.15 K, x2 = 0.8) was 761.82 ± 2 kg/m3. The mass density (303.15 K, x2 = 0.8494) was 763.47 ± 2 kg/m3, the mass density (303.15 K, x2 = 0.8994) was 765.48 ± 2 kg/m3 and the mass density (303.15 K, x2 = 0.9293) was 766.87 ± 2 kg/m3. The mass density (303.15 K, x2 = 0.9394) was 767.41 ± 2 kg/m3, the mass density (303.15 K, x2 = 0.9498) was 768 ± 2 kg/m3 and the mass density (303.15 K, x2 = 0.9596) was 768.55 ± 2 kg/m3. For the same compound, the mass density (303.15 K, x2 = 0.9699) was 769.19 ± 2 kg/m3, the mass density (303.15 K, x2 = 0.9799) was 769.85 ± 2 kg/m3 and the mass density (303.15 K, x2 = 0.9897) was 770.51 ± 2 kg/m3. It also gave a mass density (308.15 K, x2 = 0) of 747.38 ± 2 kg/m3, a mass density (308.15 K, x2 = 0.0695) of 748 ± 2 kg/m3 and a mass density (308.15 K, x2 = 0.081) of 748.08 ± 2 kg/m3. It also gave a mass density (308.15 K, x2 = 0.1023) of 748.3 ± 2 kg/m3, a mass density (308.15 K, x2 = 0.1527) of 748.66 ± 2 kg/m3 and a mass density (308.15 K, x2 = 0.2029) of 749.05 ± 2 kg/m3. The mass density (308.15 K, x2 = 0.2499) was 749.34 ± 2 kg/m3, the mass density (308.15 K, x2 = 0.2996) was 749.71 ± 2 kg/m3 and the mass density (308.15 K, x2 = 0.3542) was 750.12 ± 2 kg/m3. It also gave a mass density (308.15 K, x2 = 0.3978) of 750.52 ± 2 kg/m3, a mass density (308.15 K, x2 = 0.47) of 751.19 ± 2 kg/m3 and a mass density (308.15 K, x2 = 0.4987) of 751.49 ± 2 kg/m3. The mass density (308.15 K, x2 = 0.5498) was 752.09 ± 2 kg/m3, the mass density (308.15 K, x2 = 0.6001) was 752.78 ± 2 kg/m3 and the mass density (308.15 K, x2 = 0.6499) was 753.59 ± 2 kg/m3. The mass density (308.15 K, x2 = 0.6991) was 754.46 ± 2 kg/m3, the mass density (308.15 K, x2 = 0.7496) was 755.59 ± 2 kg/m3 and the mass density (308.15 K, x2 = 0.8) was 756.87 ± 2 kg/m3. The mass density (308.15 K, x2 = 0.8494) was 758.42 ± 2 kg/m3, the mass density (308.15 K, x2 = 0.8994) was 760.32 ± 2 kg/m3 and the mass density (308.15 K, x2 = 0.9293) was 761.62 ± 2 kg/m3. For the same compound, the mass density (308.15 K, x2 = 0.9394) was 762.14 ± 2 kg/m3, the mass density (308.15 K, x2 = 0.9498) was 762.7 ± 2 kg/m3 and the mass density (308.15 K, x2 = 0.9596) was 763.23 ± 2 kg/m3. The mass density (308.15 K, x2 = 0.9699) was 763.83 ± 2 kg/m3, the mass density (308.15 K, x2 = 0.9799) was 764.46 ± 2 kg/m3 and the mass density (308.15 K, x2 = 0.9897) was 765.09 ± 2 kg/m3.
